Results on 24 compounds are retold here after patent US11414431B2, “Substituted pyrazolo[1,5-a]pyrimidines as TYK2 inhibitors” (Nimbus Lakshmi, Inc., priority 2018, dated 2022).

For experiment [1], the target named is human TYK2 (JH2domain-pseudokinase) (Homo sapiens (Human), UniProt P29597). Briefly: TYK2 JH2 Domain Binding Assay (KINOMEscan). The following applies: 11-point 3-fold dilution, top concentration 30,000 nM, duplicate; read-out: hTYK2_JH2_Binding (Kd; nM). The protocol: Binding constants for compounds of the present invention against the JH2 domain were determined by the following protocol for a KINOMEscan® assay (DiscoveRx). A fusion protein of a partial length construct of human TYK2 (JH2domain-pseudokinase) (amino acids G556 to D888 based on reference sequence NP_003322.3) and the DNA binding domain of NFkB was expressed in transiently transfected HEK293 cells. From these HEK 293 cells, extracts were prepared in M-PER extraction buffer (Pierce) in the presence of Protease Inhibitor Cocktail Complete (Roche) and Phosphatase Inhibitor Cocktail Set II (Merck) per manufacturers' instructions. The TYK2(JH2domain-pseudokinase) fusion protein was labeled with a chimeric double-stranded DNA tag containing the NFkB binding site (5′-[…]-3′) fused to an amplicon for qPCR readout, which was added directly to the expression extract (the final concentration of DNA-tag in the binding reaction is 0.1 nM).
The liganded beads were blocked with excess biotin and washed with blocking buffer (SeaBlock (Pierce), 1% BSA, 0.05% Tween 20, 1 mM DTT) to remove unbound ligand and to reduce nonspecific binding.
Extracts were loaded with DNA-tag and diluted into the binding reaction in a two step process. First extracts were diluted 1:100 in 1× binding buffer (PBS/0.05% Tween 20/10 mM DTT/0.1% BSA/2 μg/ml sonicated salmon sperm DNA) containing 10 nM DNA-tag. This dilution was allowed to equilibrate at room temperature for 15 minutes and then subsequently diluted 1:100 in 1× binding buffer. […] Kds were determined using an 11-point 3-fold compound dilution series with three DMSO control points. […] The compounds were then diluted directly into the assays such that the final concentration of DMSO was 0.9%. All reactions performed in polypropylene 384-well plates. Each was a final volume of 0.02 mL. Assays were incubated with shaking for 1 hour at room temperature. Then the beads were pelleted and washed with wash buffer (lx PBS, 0.05% Tween 20) to remove displaced kinase and test compound. […] The qPCR protocol consisted of a 10 minute hot start at 95° C., followed by 35 cycles of 95° C. for 15 seconds, 60° C. for 1 minute.
Kds were determined using an 11-point 3-fold compound dilution series with three DMSO control points. […] The compounds were then diluted directly into the assays such that the final concentration of DMSO was 0.9%. The Kds were determined using a compound top concentration of 30,000 nM. Kd measurements were performed in duplicate.
Binding constants (Kds) were calculated with a standard dose-response curve using the Hill equation: […]
The Hill Slope was set to −1.

Experiment [2] deals with IL-12 induced STAT4 phosphorlyation mediated by TYK2/JAK2. In words: IL-12 Induced pSTAT4 in Human PBMC. Type of experiment: cell-based. The following applies: 1.7 ng/mL IL-12 for 30 minutes. The method, boiled down: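 Thawed human PBMC pre-incubated with compound 1 hr at 37° C (0.1% DMSO final), then stimulated 30 minutes with IL-12 at 1.7 ng/mL final. pSTAT4 and total STAT4 measured in cell lysates with MSD reagents.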

human TYK2 (JH2domain-pseudokinase), sequence (P29597 556-888): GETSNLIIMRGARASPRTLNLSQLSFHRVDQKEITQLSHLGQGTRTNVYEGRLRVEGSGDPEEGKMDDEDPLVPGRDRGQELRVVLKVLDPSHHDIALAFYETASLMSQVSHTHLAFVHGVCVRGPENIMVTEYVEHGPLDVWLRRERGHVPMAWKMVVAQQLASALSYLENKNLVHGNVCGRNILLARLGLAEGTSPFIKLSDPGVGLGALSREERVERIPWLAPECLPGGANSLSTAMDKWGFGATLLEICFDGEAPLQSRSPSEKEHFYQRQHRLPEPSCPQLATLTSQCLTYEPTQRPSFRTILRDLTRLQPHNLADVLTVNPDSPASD

Broadly, the Kd is the constant that tells how readily two partners part at equilibrium. As to `CNc1cc(Nc2cccn(-c3ncco3)c2=O)nc2c(C(=O)NC3CC[C@@H](OC)C3)cnn12` (mixture of isomers) [Compound I-71, N-((trans-1,3)-3-Methoxycyclopentyl)-7-(methylamino)-5-((1-(oxazol-2-yl)-2-oxo-1,2-dihydropyridin-3-yl)amino)pyrazolo[1,5-a]pyrimidine-3-carboxamide], the Kd in experiment [1] was in the range of 0.2 to 1 nM.
The same measure, in the same setting: the same measure for `CNc1cc(-c2cnc3n(CC(=O)N4CC5(COC5)C4)cccc2-3)nc2c(C(=O)NC3CC[C@@H]3OC)cnn12` (mixture of isomers) [Compound I-970]: below 0.2 nM; for `CNc1cc(Nc2cccn([C@H]3CCC[C@@](C)(O)C3)c2=O)nc2c(C(=O)NC3CC3)cnn12` [Compound I-2, N-Cyclopropyl-5-((1-((1S,3R)-3-hydroxy-3-methylcyclohexyl)-2-oxo-1,2-dihydropyridin-3-yl)amino)-7-(methylamino)pyrazolo[1,5-a]pyrimidine-3-carboxamide]: 0.2 to 1 nM.
As to `CNc1cc(Nc2cccn([C@H]3C[C@@H](OC)C3)c2=O)nc2c(C(=O)NC3CC3)cnn12` [Compound I-5, N-Cyclopropyl-5-((1-((1s,3s)-3-methoxycyclobutyl)-2-oxo-1,2-dihydropyridin-3-yl)amino)-7-(methylamino)pyrazolo[1,5-a]pyrimidine-3-carboxamide], the dissociation constant Kd in experiment [1] is below 0.2 nM.
As for `CNc1cc(Nc2cccn([C@H]3C[C@@H](OC)C3)c2=O)nc2c(C(=O)N[C@@H]3C[C@@H]3F)cnn12` [Compound I-9, N-((1R,2S)-2-Fluorocyclopropyl)-5-((1-((1s,3S)-3-methoxycyclobutyl)-2-oxo-1,2-dihydropyridin-3-yl)amino)-7-(methylamino)pyrazolo[1,5-a]pyrimidine-3-carboxamide], the Kd in experiment [1] was below 0.2 nM.
Take `CNc1cc(Nc2cccn([C@H]3C[C@@H]3F)c2=O)nc2c(C(=O)N[C@@H]3CC[C@@H]3O)cnn12` [Compound I-13, 5-((1-((1S,2S)-2-Fluorocyclopropyl)-2-oxo-1,2-dihydropyridin-3-yl)amino)-N-((1R,2S)-2-hydroxycyclobutyl)-7-(methylamino)pyrazolo[1,5-a]pyrimidine-3-carboxamide]: the Kd in experiment [1] lay in the range of 0.2 to 1 nM.
Consider `CNc1cc(-c2cn([C@H]3CCCOC3)c3ncccc23)nc2c(C(=O)N[C@H]3CC[C@H]3O)cnn12` [Compound I-15, N-((1S,2R)-2-Hydroxycyclobutyl)-7-(methylamino)-5-(1-((S)-tetrahydro-2H-pyran-3-yl)-1H-pyrrolo[2,3-b]pyridin-3-yl)pyrazolo[1,5-a]pyrimidine-3-carboxamide], for which the Kd in experiment [1] lay within 0.2 to 1 nM.
Regarding `CNc1cc(Nc2cccn(C3CCOCC3)c2=O)nc2c(C(=O)N[C@@H]3C[C@H]3OC)cnn12` [Compound I-27, N-((1R,2R)-2-Methoxycyclopropyl)-7-(methylamino)-5-((2-oxo-1-(tetrahydro-2H-pyran-4-yl)-1,2-dihydropyridin-3-yl)amino)pyrazolo[1,5-a]pyrimidine-3-carboxamide], the equilibrium dissociation constant (Kd) in experiment [1] is below 0.2 nM.
As for `CNc1cc(Nc2cccn(C3CCOCC3)c2=O)nc2c(C(=O)N[C@H]3C[C@@H]3OC)cnn12` [Compound I-28, N-((1S,2S)-2-Methoxycyclopropyl)-7-(methylamino)-5-((2-oxo-1-(tetrahydro-2H-pyran-4-yl)-1,2-dihydropyridin-3-yl)amino)pyrazol[1,5-a]pyrimidine-3-carboxamide], in experiment [1], the dissociation constant (Kd) was below 0.2 nM.
For `CNc1cc(Nc2cccn(C(C)C)c2=O)nc2c(C(=O)N[C@@H]3C[C@H]3OC)cnn12` [Compound I-29, 5-((1-Isopropyl-2-oxo-1,2-dihydropyridin-3-yl)amino)-N-((1R,2R)-2-methoxycyclopropyl)-7-(methylamino)pyrazolo[1,5-a]pyrimidine-3-carboxamide], the equilibrium dissociation constant (Kd) in experiment [1] was 0.2 to 1 nM.
With `CNc1cc(Nc2cccn(C(C)C)c2=O)nc2c(C(=O)N[C@H]3C[C@@H]3OC)cnn12` [Compound I-30, 5-((1-Isopropyl-2-oxo-1,2-dihydropyridin-3-yl)amino)-N-((1S,2S)-2-methoxycyclopropyl)-7-(methylamino)pyrazolo[1,5-a]pyrimidine-3-carboxamide], the Kd in experiment [1] lay within 0.2 to 1 nM.
Same read-out and setting: the same measure for `CNc1cc(Nc2cccn(-c3ccc(C)nc3)c2=O)nc2c(C(=O)N[C@H]3C[C@@H]3OC)cnn12` [Compound I-35, N-((1S,2S)-2-Methoxycyclopropyl)-5-((6′-methyl-2-oxo-2H-[1,3′-bipyridin]-3-yl)amino)-7-(methylamino)pyrazolo[1,5-a]pyrimidine-3-carboxamide]: below 0.2 nM.
On the same count and under the same terms, the same measure for `CNc1cc(Nc2cccn([C@@H]3C[C@H]3F)c2=O)nc2c(C(=O)N[C@@H]3CC[C@H](O)C3)cnn12` [Compound I-42, 5-((1-((1R,2R)-2-Fluorocyclopropyl)-2-oxo-1,2-dihydropyridin-3-yl)amino)-N-((1R,3S)-3-hydroxycyclopentyl)-7-(methylamino)pyrazolo[1,5-a]pyrimidine-3-carboxamide]: 0.2 to 1 nM.
For `CNc1cc(Nc2cccn([C@@H]3C[C@H]3F)c2=O)nc2c(C(=O)N[C@H]3CC[C@@H](O)C3)cnn12` [Compound I-43, 5-((1-((1R,2R)-2-Fluorocyclopropyl)-2-oxo-1,2-dihydropyridin-3-yl)amino)-N-((1S,3R)-3-hydroxycyclopentyl)-7-(methylamino)pyrazolo[1,5-a]pyrimidine-3-carboxamide], the equilibrium dissociation constant (Kd) in experiment [1] fell in the range of 0.2 to 1 nM.
Turning to `CNc1cc(Nc2cccn([C@H]3C[C@@H]3F)c2=O)nc2c(C(=O)N[C@@H]3CC[C@H](O)C3)cnn12` [Compound I-44, 5-((1-((1S,2S)-2-Fluorocyclopropyl)-2-oxo-1,2-dihydropyridin-3-yl)amino)-N-((1R,3S)-3-hydroxycyclopentyl)-7-(methylamino)pyrazolo[1,5-a]pyrimidine-3-carboxamide], in experiment [1], the Kd is 0.2 to 1 nM.
Consider `CNc1cc(Nc2cccn([C@H]3C[C@@H]3F)c2=O)nc2c(C(=O)N[C@H]3CC[C@@H](O)C3)cnn12` [Compound I-45, 5-((1-((1S,2S)-2-Fluorocyclopropyl)-2-oxo-1,2-dihydropyridin-3-yl)amino)-N-((1S,3R)-3-hydroxycyclopentyl)-7-(methylamino)pyrazolo[1,5-a]pyrimidine-3-carboxamide], for which the Kd in experiment [1] fell in the range of 0.2 to 1 nM.
What is called IC50 is the concentration that gives 50% inhibition. Read a high IC50 as weaker potency in that assay. `CNc1cc(-c2cn([C@H]3CC(=O)N(C)C3)c3ncccc23)nc2c(C(=O)NC3CC[C@@H]3OC)cnn12` (stereo partly drawn) [Compound I-1017] showed a half-inhibitory concentration (IC50) in experiment [2] of 0.1 to 0.5 µM.
`CNc1cc(-c2cn([C@H]3CO[C@@H](COC)C3)c3ncccc23)nc2c(C(=O)N[C@H]3CC[C@@H]3OC)cnn12` [Compound I-1018, N-((1S,2S)-2-methoxycyclobutyl)-5-(1-(5-(methoxymethyl)tetrahydrofuran-3-yl)-1H-pyrrolo[2,3-b]pyridin-3-yl)-7-(methylamino)pyrazolo[1,5-a]pyrimidine-3-carboxamide] showed a half-inhibitory concentration (IC50) in experiment [2] (0.5 h) below 0.1 µM.
`CNc1cc(-c2cn([C@@H]3CC(=O)N(C)C3)c3ncccc23)nc2c(C(=O)N[C@H]3CC[C@@H]3OC)cnn12` [Compound I-1022] gave a 50% inhibitory concentration (IC50) in experiment [2] of 0.1 to 0.5 µM.
Compound `CNc1cc(-c2cn([C@H]3CC(=O)N(C)C3)c3ncccc23)nc2c(C(=O)N[C@H]3CC[C@@H]3OC)cnn12` [Compound I-1024] displayed an IC50 in experiment [2] below 0.1 µM.
In the case of `CNc1cc(-c2cn([C@@H]3CC(=O)N(C4CCOCC4)C3)c3ncccc23)nc2c(C(=O)NC3CC[C@@H]3OC)cnn12` (stereo partly drawn) [Compound I-1026, N-(2-methoxycyclobutyl)-7-(methylamino)-5-(1-((R)-5-oxo-1-(tetrahydro-2H-pyran-4-yl)pyrrolidin-3-yl)-1H-pyrrolo[2,3-b]pyridin-3-yl)pyrazolo[1,5-a]pyrimidine-3-carboxamide], the IC50 in experiment [2] (0.5 h) lay within 0.1 to 0.5 µM.
Regarding `CNc1cc(-c2cn([C@H]3CC(=O)N(C4CCOCC4)C3)c3ncccc23)nc2c(C(=O)NC3CC[C@@H]3OC)cnn12` (stereo partly drawn) [Compound I-1027], in experiment [2], the IC50 is 0.1 to 0.5 µM.
The same measure, in the same setting: the same measure for `CNc1cc(-c2cn([C@@H]3CC(=O)N(C4CCOCC4)C3)c3ncccc23)nc2c(C(=O)N[C@H]3CC[C@@H]3OC)cnn12` [Compound I-1028]: 0.1 to 0.5 µM; for `CNc1cc(-c2cn([C@H]3CC(=O)N(C4CCOCC4)C3)c3ncccc23)nc2c(C(=O)N[C@H]3CC[C@@H]3OC)cnn12` [Compound I-1030]: 0.1 to 0.5 µM.
